{
  "source": "paper PMC10685318",
  "about": "“Trans-cyclosulfamidate mannose-configured cyclitol allows isoform-dependent inhibition of GH47 α-D-mannosidases through a bump–hole strategy” (Chemical Science, 2023)",
  "key": {"CkGH47 L310S [1]": {"target": "T1, CkGH47 L310S (Caulobacter sp. K31, UniProt B0SWV2, L310S)", "T1 sequence (B0SWV2 25-462 L310S)": "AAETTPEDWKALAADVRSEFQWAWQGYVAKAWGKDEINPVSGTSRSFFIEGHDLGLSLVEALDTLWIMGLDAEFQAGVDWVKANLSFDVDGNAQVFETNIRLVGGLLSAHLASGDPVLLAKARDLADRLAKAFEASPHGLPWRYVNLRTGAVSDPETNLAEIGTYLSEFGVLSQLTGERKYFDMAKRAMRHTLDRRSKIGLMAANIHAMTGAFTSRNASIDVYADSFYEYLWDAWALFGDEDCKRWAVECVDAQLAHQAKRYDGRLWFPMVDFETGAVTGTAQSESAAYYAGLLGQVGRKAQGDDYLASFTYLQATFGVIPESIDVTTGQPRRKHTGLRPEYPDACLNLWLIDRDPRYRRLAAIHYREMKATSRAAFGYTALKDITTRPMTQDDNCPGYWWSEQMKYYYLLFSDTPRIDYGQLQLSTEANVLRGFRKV", "assay": "Inhibition constant (V0/Vi vs inhibitor, mannose detection kit) with the CkGH47 L310S mutant", "format": "biochemical, Caulobacter K31 strain", "method": "Building on this kinetic assay, we obtained an inhibition constant by pre-incubation of the enzyme and 6 for 30 minutes and then following the same time-point procedure as for the Michaelis–Menten assay. […] Similarly, a dissociation constant of 970 nM was obtained using isothermal titration calorimetry (Fig. S6 ^†). To understand the interactions between 6 and CkGH47 L310S regarding the introduced hole, a crystal structure complex was obtained (statistics in Table S2 ^†). Trans-cyclic sulfamidate 6 binds similarly to other conformationally restricted GH47 inhibitors, with additional interactions between the sulfamidate and active site residues, for example, the nitrogen and oxygen, and D249 and R363 side chains. Additionally, the introduced serine residue is indeed now in a position to hydrogen bond to the oxygen of the sulfamidate with a distance of 3.1 Å.\n(§1) Trans-Cyclosulfamidate Cyclitols Males et al.\n(§2) 2.1 Biochemical and biological methods\n(§3) To obtain Michaelis-Menten kinetics\n(§4) Lastly, to achieve an inhibition constant, the\n(§5) The gradient of the graph, V0/Vi\n(§6) After taking each time point, the sample was heat denatured at 95 °C for 5 minutes. The reactions were conducted in triplicate and averaged. […]\n(§7) microplate spectrophotometer (BioTek). The mannose detection kit (Megazyme) was used to detect […]\n(§8) dehydrogenase, was monitored at 340 nm. The absorbance after hexokinase was added to the mixture […]"}, "CkGH47 L310S [2]": {"target": "T1, CkGH47 L310S", "assay": "Isothermal titration calorimetry", "format": "binding, Caulobacter K31 strain", "from_the_text": "as §1\nFigure S6. Isothermal titration calorimetry binding thermodynamics between CkGH47 L310S and 6. A. raw data injection profile;\nB. Titration curve. N = 1.01 ± 0.02 sites, ΔH = -7.39 ± 0.19 kcal mol-1.\nFigure S7. Overlay of the human GH47 α-1,2-mannosidase structures highlighting the conserved active site. Crystal structure of ERManI is in orange (PDB ID: 1FMI); the remaining structures were predicted by Alphafold[5], in light blue is GMIB, in dark blue is GMIA, in purple is GMIC, in yellow is EDEM2, in red is EDEM3 and in pink is EDEM1. A. The crystal structure from this work of CkGH47 and 3 is in green. Residues annotated according to the numbering of CkGH47. B. The human GH47 enzymes are superposed minus the CkGH47 enzyme; the residues are annotated according to the numbering of HsERManI. […]\nas §2, §3, §4, §5, §6, §7, §8\n2.1.2 Isothermal titration calorimetry\nMicroCal ITC200 calorimeter at 25 °C over 20 injections. The experiment was duplicated to obtain a […]\nthe MicroCal PEAK-ITC analysis software.\n2.2 Crystallographic data collection and refinement of CkGH47\n3′ and the reverse primer was 5′-[…]-3′. Protein production and purification was followed as described previously.[3]\nReference data in the form of a\nRefinement of the model was conducted […]\nconformation was conducted using […]. Details of the data collection and refinement statistics […]\nFigures of the structure were produced by using CCP4mg."}, "[3]": {"test_system": "GH47 model enzyme from Caulobacter K31 strain", "assay": "Crystal soaks with WT GH47", "format": "binding"}, "[4]": {"conditions": "isothermal titration calorimetry"}},
  "data": [
    {"smiles": "O=S1(=O)N[C@@H]2[C@@H](O)[C@@H](O)[C@H](O)[C@@H](CO)[C@H]2O1", "note": "[compound 6, 1,6-trans-manno-cyclosulfamidate]", "values": [
      {"measurement": "Ki", "setting": "CkGH47 L310S [1]", "result": 574, "unit": "nM"},
      {"measurement": "Kd", "setting": "CkGH47 L310S [2]", "result": 970, "unit": "nM"},
      {"measurement": "N", "setting": "CkGH47 L310S [2]; [4]", "result": "1.01 ± 0.02", "unit": "sites"},
      {"measurement": "ΔH", "setting": "CkGH47 L310S [2]; [4]", "result": "-7.39 ± 0.19", "unit": "kcal/mol"},
      {"measurement": "binding in crystal soaks", "setting": "[3]", "result": "no binding"}
    ]}
  ]
}
